Experimental data as given in the NIST ThermoML archive (doi:10.1021/acs.jced.6b00542).
Numbers after ± are expanded uncertainties.

Test: xn = mol fraction of the nth substance listed
Conditions: for speed of sound: 100 kPa, Frequency=3 MHz, Sing-around technique in a fixed-path interferometer; for speed of sound / viscosity / mass density: Liquid; for viscosity / mass density: 102 kPa; for viscosity: Concentric cylinders viscometry; for mass density: Vibrating tube method; for surface tension liquid-gas: 294.5 K, Pendant drop shape

CCCCc1ccccc1 [butylbenzene] + CCCCCCCCCCCCCCCC
Conditions	mass density [kg/m3]	speed of sound [m/s]	viscosity [mPa·s]
293.15 K, x1 = 0.1586	780.89 ± 0.15	1353.2 ± 1	2.92 ± 0.02
293.15 K, x1 = 0.2971	788.51 ± 0.15	1350.1 ± 1	2.5 ± 0.01
293.15 K, x1 = 0.4067	795.49 ± 0.14	1347.8 ± 1	2.21 ± 0.01
293.15 K, x1 = 0.5293	804.56 ± 0.13	1346 ± 0.9	1.91 ± 0.01
293.15 K, x1 = 0.6278	813.07 ± 0.13	1345 ± 0.9	1.69 ± 0.01
293.15 K, x1 = 0.7158	821.75 ± 0.12	1345.1 ± 0.9	1.52 ± 0.01
293.15 K, x1 = 0.7981	831.1 ± 0.12	1346.3 ± 0.9	1.36 ± 0.01
293.15 K, x1 = 0.8709	840.48 ± 0.12	1347.8 ± 0.9	1.23 ± 0.01
293.15 K, x1 = 0.938	850.32 ± 0.11	1350.4 ± 0.9	1.12 ± 0.01
293.15 K, x1 = 1	860.51 ± 0.11	1353.7 ± 0.9	1.05 ± 0.01
303.15 K, x1 = 0.1586	773.89 ± 0.16	1316.1 ± 1	2.35 ± 0.01
303.15 K, x1 = 0.2971	781.43 ± 0.15	1313 ± 1	2.05 ± 0.01
303.15 K, x1 = 0.4067	788.33 ± 0.14	1310.7 ± 0.9	1.83 ± 0.01
303.15 K, x1 = 0.5293	797.29 ± 0.14	1308.8 ± 0.9	1.6 ± 0.01
303.15 K, x1 = 0.6278	805.7 ± 0.13	1307.7 ± 0.9	1.43 ± 0.01
303.15 K, x1 = 0.7158	814.27 ± 0.13	1307.6 ± 0.9	1.29 ± 0.01
303.15 K, x1 = 0.7981	823.49 ± 0.12	1308.5 ± 0.9	1.17 ± 0.01
303.15 K, x1 = 0.8709	832.73 ± 0.12	1309.7 ± 0.9	1.06 ± 0.01
303.15 K, x1 = 0.938	842.44 ± 0.12	1312 ± 0.9	0.976 ± 0.007
303.15 K, x1 = 1	852.49 ± 0.11	1314.9 ± 0.9	0.91 ± 0.007
313.15 K, x1 = 0.1586	766.88 ± 0.16	1279.5 ± 1	1.94 ± 0.01
313.15 K, x1 = 0.2971	774.34 ± 0.15	1276.4 ± 1	1.71 ± 0.01
313.15 K, x1 = 0.4067	781.16 ± 0.14	1274.1 ± 0.9	1.54 ± 0.01
313.15 K, x1 = 0.5293	790 ± 0.14	1272.1 ± 0.9	1.36 ± 0.01
313.15 K, x1 = 0.6278	798.3 ± 0.13	1270.8 ± 0.9	1.23 ± 0.01
313.15 K, x1 = 0.7158	806.75 ± 0.13	1270.5 ± 0.9	1.11 ± 0.01
313.15 K, x1 = 0.7981	815.84 ± 0.12	1271.1 ± 0.9	1.01 ± 0.01
313.15 K, x1 = 0.8709	824.96 ± 0.12	1272.1 ± 0.9	0.932 ± 0.007
313.15 K, x1 = 0.938	834.53 ± 0.12	1274 ± 0.9	0.859 ± 0.007
313.15 K, x1 = 1	844.43 ± 0.11	1276.6 ± 0.9	0.801 ± 0.006
323.15 K, x1 = 0.1586	–	1243.6 ± 1	1.62 ± 0.01
323.15 K, x1 = 0.2971	–	1240.4 ± 1	1.44 ± 0.01
323.15 K, x1 = 0.4067	–	1238 ± 0.9	1.31 ± 0.01
323.15 K, x1 = 0.5293	–	1235.9 ± 0.9	1.17 ± 0.01
323.15 K, x1 = 0.6278	–	1234.4 ± 0.9	1.06 ± 0.01
323.15 K, x1 = 0.7158	–	1233.9 ± 0.9	0.972 ± 0.007
323.15 K, x1 = 0.7981	–	1234.3 ± 0.9	0.891 ± 0.007
323.15 K, x1 = 0.8709	–	1235 ± 0.9	0.822 ± 0.006
323.15 K, x1 = 0.938	–	1236.6 ± 0.8	0.761 ± 0.006
323.15 K, x1 = 1	–	1238.7 ± 0.8	0.713 ± 0.006

Conditions	surface tension liquid-gas [mN/m]
x1 = 0.1586	27.5 ± 0.4
x1 = 0.2971	27.3 ± 0.4
x1 = 0.4067	27.6 ± 0.4
x1 = 0.5293	27.8 ± 0.4
x1 = 0.6278	27.9 ± 0.4
x1 = 0.7158	28 ± 0.4
x1 = 0.7981	28.2 ± 0.4
x1 = 0.8709	28.4 ± 0.4
x1 = 0.938	28.7 ± 0.4
